Measured values published in the NIST ThermoML archive (doi:10.1021/je900596d).
± gives the expanded uncertainty stated by the source.

Conditions: 355.18 K, Liquid, Vibrating tube method

FC(F)=C(F)C(F)(F)F [hexafluoropropene]
Conditions	mass density [kg/m3]
3539.3 kPa	945.7 ± 1.2
3560.5 kPa	947.64 ± 1.2
3582.1 kPa	949.46 ± 1.1
3603.9 kPa	951.17 ± 1.1
3625.9 kPa	953.18 ± 1.1
3667.2 kPa	956.48 ± 1.1
3687.7 kPa	958.15 ± 1.1
3708.3 kPa	959.83 ± 1.1
3730.3 kPa	961.36 ± 1.1
3751.6 kPa	963.12 ± 1.1
3773.4 kPa	964.61 ± 1.1
3795.3 kPa	966.25 ± 1.1
3807.5 kPa	967.13 ± 1.1
3828.9 kPa	968.54 ± 1.1
3851.4 kPa	970.11 ± 1.1
3873.7 kPa	971.7 ± 1.1
3916.8 kPa	974.54 ± 1.1
3938.9 kPa	976.09 ± 1.1
3959.3 kPa	977.28 ± 1.1
3981 kPa	978.83 ± 1.1
4015.2 kPa	980.9 ± 1.1
4033.6 kPa	981.94 ± 1.1
4071.4 kPa	984.1 ± 1.1
4091.9 kPa	985.37 ± 1.1
4110.7 kPa	986.72 ± 1.1
4129.8 kPa	987.54 ± 1.1
4149.4 kPa	988.81 ± 1.1
4167.6 kPa	989.92 ± 1.1
4186.6 kPa	990.96 ± 1.1
4206.8 kPa	992.1 ± 1.1
4226.2 kPa	992.98 ± 1.1
4244.6 kPa	994.12 ± 1.1
4263.6 kPa	995.02 ± 1.1
4281.8 kPa	995.99 ± 1.1
4338 kPa	998.86 ± 1.1
4375.5 kPa	1000.94 ± 1.1
4413 kPa	1002.73 ± 1.1
4449.8 kPa	1004.57 ± 1.1
4487.2 kPa	1006.43 ± 1.1
4525 kPa	1008.13 ± 1.1
4562.1 kPa	1009.97 ± 1.1
4599 kPa	1011.6 ± 1.1
4638.8 kPa	1013.65 ± 1.1
4677.4 kPa	1015.25 ± 1.1
4716.6 kPa	1016.92 ± 1.1
4794.9 kPa	1020.36 ± 1.1
4873.9 kPa	1023.7 ± 1.1
4913.4 kPa	1025.32 ± 1.1
4951 kPa	1026.84 ± 1.1
4991.2 kPa	1028.51 ± 1.1
5029.8 kPa	1029.94 ± 1.1
5070.6 kPa	1031.42 ± 1.1
5113 kPa	1033.05 ± 1.1
5154.1 kPa	1034.66 ± 1.1
5236.8 kPa	1037.65 ± 1.1
5275.8 kPa	1039.14 ± 1.1
5316.9 kPa	1040.61 ± 1.1
5355.6 kPa	1041.9 ± 1.1
5398.7 kPa	1043.42 ± 1.1
5439.2 kPa	1044.89 ± 1.1
5483.2 kPa	1046.3 ± 1.1
5561 kPa	1048.84 ± 1.1
5601.4 kPa	1050.18 ± 1.1
5642.3 kPa	1051.53 ± 1.1
5684.6 kPa	1052.92 ± 1.1
5724.6 kPa	1054.21 ± 1.1
5768.2 kPa	1055.5 ± 1.1
5808.2 kPa	1056.73 ± 1.1
5848.7 kPa	1058.05 ± 1.1
5893.8 kPa	1059.3 ± 1.1
5935.5 kPa	1060.51 ± 1.1
5972.8 kPa	1061.59 ± 1.1
6013.5 kPa	1062.81 ± 1.1
6113.5 kPa	1065.75 ± 1.1
6163.2 kPa	1067.09 ± 1.1
6213.3 kPa	1068.54 ± 1.1
6263.6 kPa	1069.94 ± 1.1
6313.1 kPa	1071.25 ± 1.1
6362.4 kPa	1072.65 ± 1.1
6411 kPa	1074 ± 1.1
6461.2 kPa	1075.29 ± 1.1
6562.7 kPa	1077.95 ± 1.1
6611.5 kPa	1079.21 ± 1.1
6661.1 kPa	1080.53 ± 1.1
6710.9 kPa	1081.81 ± 1.1
6761.1 kPa	1083.05 ± 1.1
6812.8 kPa	1084.3 ± 1.1
6865.2 kPa	1085.67 ± 1.1
6915.7 kPa	1086.78 ± 1.1
6965.9 kPa	1088.01 ± 1.1
7014.9 kPa	1089.29 ± 1.1
7065.8 kPa	1090.44 ± 1.1
7164.6 kPa	1092.85 ± 1.1
7216.4 kPa	1093.92 ± 1.1
7265.8 kPa	1095.06 ± 1.1
7366.2 kPa	1097.33 ± 1.1
7415.2 kPa	1098.43 ± 1.1
7466 kPa	1099.6 ± 1.1
7516.3 kPa	1100.77 ± 1.1
7566.3 kPa	1101.91 ± 1.1
7616.2 kPa	1102.85 ± 1.1
7718.1 kPa	1105.05 ± 1.1
7768.7 kPa	1106.11 ± 1.1
7817.3 kPa	1107.12 ± 1.1
7868.8 kPa	1108.17 ± 1.1
7921.6 kPa	1109.13 ± 1.1
7971.5 kPa	1110.3 ± 1.1
8069.1 kPa	1112.3 ± 1.1
8121.2 kPa	1113.23 ± 1.1
8171.1 kPa	1114.28 ± 1.2
8220.8 kPa	1115.22 ± 1.1
8273.9 kPa	1116.3 ± 1.1
8324.3 kPa	1117.22 ± 1.2
8376.9 kPa	1118.25 ± 1.2
8428.6 kPa	1119.32 ± 1.2
8478.5 kPa	1120.28 ± 1.2
8528.9 kPa	1121.22 ± 1.2
8578.5 kPa	1122.06 ± 1.2
8628.9 kPa	1123.04 ± 1.2
8681.5 kPa	1124 ± 1.2
8731.5 kPa	1124.98 ± 1.2
8781.2 kPa	1125.78 ± 1.2
8835.2 kPa	1126.86 ± 1.2
8886.8 kPa	1127.78 ± 1.2
8989.2 kPa	1129.56 ± 1.2
9039.4 kPa	1130.46 ± 1.2
9089.8 kPa	1131.27 ± 1.2
9138.1 kPa	1132.17 ± 1.2
9187.7 kPa	1132.92 ± 1.2
9238.4 kPa	1133.87 ± 1.2
9290.5 kPa	1134.77 ± 1.2
9339.3 kPa	1135.6 ± 1.2
9390.7 kPa	1136.39 ± 1.2
9440.4 kPa	1137.24 ± 1.2
